The results in this text go back to ChEMBL document CHEMBL1201862, “PubChem BioAssay data set” (2004).

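Interpolation was linear, between the two tested concentrations surrounding the appropriate level; five concentrations were tested over 48 hours in 96-well plates. The concentration for 50% growth inhibition is given as GI50.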 Active and inactive are the calls of the source. Cut-off read from the data, not from the text of the source: active = GI50 up to about 1.1 µM and inactive = higher.

Test systems include 786-0; A498; HCT-15; HOP-62; IGROV-1; MDA-N; MOLT-4; NCI-H23; OVCAR-5; OVCAR-8; SF-295; SK-OV-3; SN12C; SW-620; T47D; UACC-257; UACC-62; HT-29; Malme-3M; TK-10.
Assay in all cases: NCI tumour cell line growth inhibition, 48 h

With `COc1cc(C(=O)N(C(=O)N2CCCCC2)c2ccccc2)cc(OC)c1OC`, the GI50 was > 100 µM (inactive) in the experiment on 786-0; > 100 µM (inactive) with A498; above 100 µM in the experiment with HCT-15; > 100 µM (inactive) in the experiment on HOP-62; > 100 µM (inactive) in the experiment with IGROV-1; > 100 µM (inactive) in the experiment with MDA-N. Further, the GI50 with MOLT-4, with NCI-H23, with OVCAR-5, in the experiment with OVCAR-8, with SF-295 and with SK-OV-3 was > 100 µM (inactive) in each case. The GI50 with SN12C, with SW-620, with T47D, with UACC-257 and in the experiment with UACC-62 was > 100 µM (inactive) each time.
On to `c1ccc(N/N=N/c2ccc(-c3nc4ccccc4o3)cc2)nc1`, for which the GI50 in the experiment with 786-0 was 91.8 µM (inactive); in the experiment with A498 it was 46.3 µM (inactive); in the experiment on HCT-15, 33.7 µM; with HOP-62, 55.8 µM (inactive); with HT-29, 42.8 µM (inactive); with IGROV-1, 28.6 µM (inactive). The GI50 with MDA-N is 68.7 µM (inactive); in the experiment on MOLT-4 it was 21.6 µM (inactive); in the experiment with Malme-3M, > 100 µM (inactive); in the experiment on NCI-H23, 34 µM (inactive); with OVCAR-5 it was > 100 µM (inactive); in the experiment on OVCAR-8, 35.8 µM (inactive). In addition, the GI50 with SK-OV-3 was 35.4 µM (inactive); in the experiment on SN12C it was 56.6 µM (inactive); with SW-620, 19.3 µM (inactive); in the experiment with T47D, 25.2 µM (inactive); with TK-10 it was 37.4 µM (inactive); in the experiment with UACC-257, 29.7 µM (inactive). Also, in the experiment with UACC-62, the GI50 is 40.8 µM (inactive).
Take `C=C1C(=O)O[C@@H]2C[C@@H](C)[C@@H]3C=CC(=O)[C@@]3(C)[C@@H](O)[C@H]12` [HELENALIN]: the GI50 in the experiment with 786-0 is 1.25 µM (inactive); in the experiment on A498 it was 1.86 µM (inactive); in the experiment with HCT-15, 2.33 µM; in the experiment with HOP-62, 5.89 µM (inactive); with HT-29 it was 1.71 µM (inactive); in the experiment on IGROV-1 it was 2.2 µM (inactive). The GI50 in the experiment with MDA-N was 2.08 µM (inactive); with MOLT-4, 0.851 µM (active); with Malme-3M, 1.69 µM (inactive); in the experiment on NCI-H23, 1.66 µM (inactive); in the experiment on OVCAR-5 it was 1.71 µM (inactive); in the experiment with OVCAR-8, 1.48 µM (inactive). For the same compound, the GI50 in the experiment with SF-295 was 2.77 µM (inactive); in the experiment with SN12C, 1.36 µM (inactive); in the experiment on SW-620, 0.719 µM (active); with T47D, 2.95 µM (inactive); in the experiment on TK-10 it was 4.05 µM (inactive); in the experiment on UACC-257, 1.59 µM (inactive). The GI50 in the experiment with UACC-62 is 1.39 µM (inactive).
Take `CC(=O)Nc1cc2nc3n(c2cc1C)CCC3OC(C)=O` (configuration not stated): the GI50 in the experiment with 786-0 is > 100 µM (inactive); with A498 it was > 100 µM (inactive); in the experiment on HCT-15 it was above 100 µM; in the experiment with HT-29, > 100 µM (inactive); with IGROV-1 it was > 100 µM (inactive); in the experiment with MDA-N, > 100 µM (inactive). The GI50 with MOLT-4, with Malme-3M, in the experiment with NCI-H23, in the experiment on OVCAR-5, in the experiment on OVCAR-8 and with SF-295 was > 100 µM (inactive) in each case. For the same compound, the GI50 with SK-OV-3, in the experiment on SN12C, in the experiment on SW-620, in the experiment with T47D, in the experiment on UACC-257 and in the experiment on UACC-62 was > 100 µM (inactive) in each case.
`CC(C)(C)OC(=O)N1CCC(C(=O)O)CC1`: the GI50 with 786-0 is > 100 µM (inactive); in the experiment on A498 it was > 100 µM (inactive); with HCT-15 it was above 100 µM; in the experiment on HOP-62 it was > 100 µM (inactive); with HT-29, > 100 µM (inactive); with IGROV-1, > 100 µM (inactive). Further, the GI50 in the experiment with MDA-N, with MOLT-4, with Malme-3M, in the experiment with NCI-H23, in the experiment with OVCAR-5 and with OVCAR-8 was > 100 µM (inactive) throughout. Besides, the GI50 in the experiment with SF-295, with SN12C, in the experiment with SW-620, in the experiment with T47D, with TK-10 and in the experiment with UACC-257 was > 100 µM (inactive) in each case. The GI50 in the experiment on UACC-62 was > 100 µM (inactive).
As for `C[C@H](CCC(=O)O[C@@H]1CC[C@@]2(C)C(CC[C@H]3[C@@H]4CC[C@H]([C@H](C)CCc5nc6ccccc6[nH]5)[C@@]4(C)CC[C@@H]32)C1)[C@H]1CC[C@H]2[C@@H]3CCC4C[C@H](O)CC[C@]4(C)[C@H]3CC[C@]12C` (some centres not stated), the GI50 is 11.5 µM (inactive) in the experiment with 786-0; > 87.5 µM (inactive) in the experiment with A498; above 80.2 µM with HCT-15; 25.7 µM (inactive) in the experiment on HOP-62; > 57.5 µM (inactive) with HT-29; 1.33 µM (inactive) with IGROV-1. Besides, the GI50 in the experiment with MDA-N was > 100 µM (inactive); in the experiment with MOLT-4, > 100 µM (inactive); in the experiment on NCI-H23 it was 4.53 µM (inactive); in the experiment with OVCAR-5, > 100 µM (inactive); with OVCAR-8 it was 20.2 µM (inactive); in the experiment with SF-295 it was 16.7 µM (inactive). The GI50 was > 81.5 µM (inactive) with SK-OV-3; > 100 µM (inactive) in the experiment on SN12C; > 100 µM (inactive) in the experiment on SW-620; 5.04 µM (inactive) with T47D; > 100 µM (inactive) in the experiment with TK-10; > 100 µM (inactive) in the experiment on UACC-257. Further, the GI50 in the experiment on UACC-62 is > 100 µM (inactive).
In the case of `O=[N+]([O-])c1ccc(/C=N/n2c(S)nnc2CCc2nnc(S)n2/N=C/c2ccc([N+](=O)[O-])o2)o1`, the GI50 in the experiment with 786-0 is 17.1 µM (inactive); in the experiment on A498 it was > 100 µM (inactive); in the experiment with HCT-15, 15.9 µM; in the experiment on HOP-62 it was 24 µM (inactive); in the experiment with HT-29 it was 29.3 µM (inactive); in the experiment on IGROV-1 it was 44.3 µM (inactive). The GI50 in the experiment with MDA-N was 13.8 µM (inactive); in the experiment on MOLT-4, 24.8 µM (inactive); in the experiment on NCI-H23, 16.7 µM (inactive); in the experiment on OVCAR-5, > 100 µM (inactive); in the experiment on OVCAR-8, 31.9 µM (inactive); in the experiment on SF-295 it was > 100 µM (inactive). Further, the GI50 with SK-OV-3 is > 100 µM (inactive); with SW-620, 16.7 µM (inactive); in the experiment on T47D it was 23.1 µM (inactive); in the experiment with TK-10 it was 84.1 µM (inactive); in the experiment on UACC-257, 22.4 µM (inactive).
As for `COc1ccc(NC(=O)/C(=N\NC(=O)C[n+]2ccccc2)c2c(O)c3ccc(O)cc3oc2=O)c([N+](=O)[O-])c1`, the GI50 with 786-0 was > 100 µM (inactive); in the experiment with A498, 75.7 µM (inactive); in the experiment on HCT-15, above 100 µM; with HT-29, > 100 µM (inactive); with IGROV-1, > 100 µM (inactive); in the experiment on MDA-N, > 100 µM (inactive). The GI50 with MOLT-4 is 85.5 µM (inactive); with Malme-3M, > 100 µM (inactive); in the experiment with NCI-H23, > 100 µM (inactive); with OVCAR-5, > 100 µM (inactive); with OVCAR-8, > 100 µM (inactive); in the experiment with SF-295, > 100 µM (inactive). Moreover, the GI50 in the experiment on SK-OV-3, with SN12C, in the experiment with SW-620, in the experiment with T47D, in the experiment on TK-10 and in the experiment with UACC-257 was > 100 µM (inactive) in each case. Besides, the GI50 with UACC-62 was > 100 µM (inactive).
